Laboratory results as given in ChEMBL document CHEMBL4649989, “Design of a Chemical Probe for the Bromodomain and Plant Homeodomain Finger-Containing (BRPF) Family of Proteins” (J Med Chem, 2017).
“And” between values parts separate entries of the source, which are not always exact repeats. Identical values can stand only once.

Assays:
[1] = target: Bromodomain-containing protein 1 (Homo sapiens) (UniProt O95696); details: Compound concentration 25.0 uM, Protein concentration 50.0 uM
Description: Alphascreen assay. Domain start/stop: E556-A688

[2] = target: Chromatin remodeling regulator CECR2 (Homo sapiens) (UniProt Q9BXF3); details: Compound concentration 10.0 uM
[3] = target: Tyrosine-protein kinase BAZ1B (Homo sapiens) (UniProt Q9UIG0); details: Compound concentration 10.0 uM
[4] = target: Protein polybromo-1 (Homo sapiens) (UniProt Q86U86); details: Compound concentration 10.0 uM
[5] = target: Transcription intermediary factor 1-alpha (Homo sapiens) (UniProt O15164); details: Compound concentration 10.0 uM
[6] = target: Bromodomain-containing protein 4 (Homo sapiens) (UniProt O60885); details: Compound concentration 10.0 uM
[7] = target: Transcription intermediary factor 1-beta (Homo sapiens) (UniProt Q13263); details: Compound concentration 10.0 uM
[8] = target: Bromodomain-containing protein 4 (Homo sapiens) (UniProt O60885); details: Compound concentration 10.0 uM; remark: listed apart in the source
[9] = target: Transcription initiation factor TFIID subunit 1 (Homo sapiens) (UniProt P21675); details: Compound concentration 10.0 uM
[10] = target: PH-interacting protein (Homo sapiens) (UniProt Q8WWQ0); details: Compound concentration 10.0 uM
[11] = target: Transcription initiation factor TFIID subunit 1-like (Homo sapiens) (UniProt Q8IZX4); details: Compound concentration 10.0 uM
[12] = target: Bromodomain and PHD finger-containing protein 3 (Homo sapiens) (UniProt Q9ULD4); details: Compound concentration 10.0 uM
[13] = target: Protein polybromo-1 (Homo sapiens) (UniProt Q86U86); details: Compound concentration 10.0 uM; remark: listed apart in the source
[14] = target: Transcription initiation factor TFIID subunit 1-like (Homo sapiens) (UniProt Q8IZX4); details: Compound concentration 10.0 uM; remark: listed apart in the source
[15] = target: Bromodomain testis-specific protein (Homo sapiens) (UniProt Q58F21); details: Compound concentration 10.0 uM
[16] = target: Bromodomain adjacent to zinc finger domain protein 2B (Homo sapiens) (UniProt Q9UIF8); details: Compound concentration 10.0 uM
Peregrin (Homo sapiens) [17] = target: Peregrin (Homo sapiens) (UniProt P55201); details: Compound concentration 10.0 uM
Chain of Peregrin (Homo sapiens) (P55201 whole entry): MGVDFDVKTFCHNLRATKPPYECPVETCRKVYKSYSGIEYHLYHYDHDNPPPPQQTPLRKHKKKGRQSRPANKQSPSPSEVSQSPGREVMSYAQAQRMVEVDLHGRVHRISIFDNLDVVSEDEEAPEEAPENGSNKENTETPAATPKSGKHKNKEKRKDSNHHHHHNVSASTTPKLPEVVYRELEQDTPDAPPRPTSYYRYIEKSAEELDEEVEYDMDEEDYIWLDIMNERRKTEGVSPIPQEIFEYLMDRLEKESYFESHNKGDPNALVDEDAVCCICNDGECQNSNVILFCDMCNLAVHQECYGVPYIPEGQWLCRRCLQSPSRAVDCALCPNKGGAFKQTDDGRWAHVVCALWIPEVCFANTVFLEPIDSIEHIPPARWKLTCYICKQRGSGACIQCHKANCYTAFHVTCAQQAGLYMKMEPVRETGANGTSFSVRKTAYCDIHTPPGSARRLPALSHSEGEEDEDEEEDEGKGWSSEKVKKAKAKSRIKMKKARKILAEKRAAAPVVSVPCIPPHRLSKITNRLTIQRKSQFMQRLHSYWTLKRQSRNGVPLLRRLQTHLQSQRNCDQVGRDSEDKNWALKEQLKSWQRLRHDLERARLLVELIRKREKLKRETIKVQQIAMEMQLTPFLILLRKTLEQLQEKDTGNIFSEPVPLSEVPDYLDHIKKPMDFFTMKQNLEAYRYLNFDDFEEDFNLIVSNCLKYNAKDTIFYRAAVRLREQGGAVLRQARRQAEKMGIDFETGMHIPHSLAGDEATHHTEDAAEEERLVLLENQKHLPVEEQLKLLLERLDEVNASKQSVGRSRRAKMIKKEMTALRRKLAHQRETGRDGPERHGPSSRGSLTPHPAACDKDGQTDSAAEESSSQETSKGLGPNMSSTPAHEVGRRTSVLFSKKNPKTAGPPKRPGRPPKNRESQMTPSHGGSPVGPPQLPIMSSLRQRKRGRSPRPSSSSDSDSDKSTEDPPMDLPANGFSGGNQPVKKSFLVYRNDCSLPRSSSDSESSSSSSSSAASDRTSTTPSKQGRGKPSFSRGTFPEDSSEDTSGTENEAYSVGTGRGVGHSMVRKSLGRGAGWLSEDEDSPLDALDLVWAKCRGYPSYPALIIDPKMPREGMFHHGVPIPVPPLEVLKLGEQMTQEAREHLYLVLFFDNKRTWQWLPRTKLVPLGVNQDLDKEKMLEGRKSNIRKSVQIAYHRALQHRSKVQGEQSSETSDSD

[18] = target: Bromodomain-containing protein 3 (Homo sapiens) (UniProt Q15059); details: Compound concentration 10.0 uM
Chain of Bromodomain-containing protein 3 (Homo sapiens) (Q15059 2-726 limits assumed): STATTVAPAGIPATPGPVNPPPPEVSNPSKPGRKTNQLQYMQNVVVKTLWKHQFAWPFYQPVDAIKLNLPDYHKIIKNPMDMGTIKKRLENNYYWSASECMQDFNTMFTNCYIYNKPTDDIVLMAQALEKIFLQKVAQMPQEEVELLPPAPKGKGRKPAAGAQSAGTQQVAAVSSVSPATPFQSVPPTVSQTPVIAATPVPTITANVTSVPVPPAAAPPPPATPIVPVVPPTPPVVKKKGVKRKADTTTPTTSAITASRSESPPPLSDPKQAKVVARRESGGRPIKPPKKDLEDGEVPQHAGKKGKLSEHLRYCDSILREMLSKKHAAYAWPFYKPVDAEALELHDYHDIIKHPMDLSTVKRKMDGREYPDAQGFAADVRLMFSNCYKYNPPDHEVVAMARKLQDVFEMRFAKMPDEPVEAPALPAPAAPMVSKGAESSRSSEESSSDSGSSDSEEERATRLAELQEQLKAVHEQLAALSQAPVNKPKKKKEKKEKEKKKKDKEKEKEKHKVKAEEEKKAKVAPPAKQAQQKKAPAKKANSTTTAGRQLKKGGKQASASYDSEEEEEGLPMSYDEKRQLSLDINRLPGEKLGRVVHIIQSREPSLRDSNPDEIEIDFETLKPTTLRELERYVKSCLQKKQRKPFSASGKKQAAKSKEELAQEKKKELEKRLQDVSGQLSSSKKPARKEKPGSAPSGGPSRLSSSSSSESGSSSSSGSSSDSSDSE

[19] = target: Histone-lysine N-methyltransferase ASH1L (Homo sapiens) (UniProt Q9NR48); details: Compound concentration 10.0 uM
Peregrin = Peregrin (Homo sapiens, UniProt P55201); experiment: Alphascreen assay. Binding to BRPF1B (domain start/stop: M626-G740) by alphascreen assay
Chain of Peregrin (P55201 whole entry): as the sequence (P55201 whole entry) above

[20] = target: Bromodomain-containing protein 2 (Homo sapiens) (UniProt P25440); details: Compound concentration 10.0 uM
[21] = target: ATPase family AAA domain-containing protein 2 (Homo sapiens) (UniProt Q6PL18); details: Compound concentration 25.0 uM, Protein concentration 225.0 uM
Description: Alphascreen assay. Domain start/stop: Q981-R1108

[22] = target: Bromodomain testis-specific protein (Homo sapiens) (UniProt Q58F21); details: Compound concentration 10.0 uM; remark: listed apart in the source
[23] = target: ATPase family AAA domain-containing protein 2 (Homo sapiens) (UniProt Q6PL18); details: Compound concentration 10.0 uM
[24] = target: Bromodomain-containing protein 7 (Homo sapiens) (UniProt Q9NPI1); details: Compound concentration 10.0 uM
[25] = target: Bromodomain and WD repeat-containing protein 3 (Homo sapiens) (UniProt Q6RI45); details: Compound concentration 10.0 uM
[26] = target: Transcription intermediary factor 1-alpha (Homo sapiens) (UniProt O15164); details: Compound concentration 10.0 uM; remark: listed apart in the source
[27] = target: CREB-binding protein (Homo sapiens) (UniProt Q92793); details: Compound concentration 10.0 uM
Chain of CREB-binding protein (Homo sapiens) (Q92793 2-2442 limits assumed): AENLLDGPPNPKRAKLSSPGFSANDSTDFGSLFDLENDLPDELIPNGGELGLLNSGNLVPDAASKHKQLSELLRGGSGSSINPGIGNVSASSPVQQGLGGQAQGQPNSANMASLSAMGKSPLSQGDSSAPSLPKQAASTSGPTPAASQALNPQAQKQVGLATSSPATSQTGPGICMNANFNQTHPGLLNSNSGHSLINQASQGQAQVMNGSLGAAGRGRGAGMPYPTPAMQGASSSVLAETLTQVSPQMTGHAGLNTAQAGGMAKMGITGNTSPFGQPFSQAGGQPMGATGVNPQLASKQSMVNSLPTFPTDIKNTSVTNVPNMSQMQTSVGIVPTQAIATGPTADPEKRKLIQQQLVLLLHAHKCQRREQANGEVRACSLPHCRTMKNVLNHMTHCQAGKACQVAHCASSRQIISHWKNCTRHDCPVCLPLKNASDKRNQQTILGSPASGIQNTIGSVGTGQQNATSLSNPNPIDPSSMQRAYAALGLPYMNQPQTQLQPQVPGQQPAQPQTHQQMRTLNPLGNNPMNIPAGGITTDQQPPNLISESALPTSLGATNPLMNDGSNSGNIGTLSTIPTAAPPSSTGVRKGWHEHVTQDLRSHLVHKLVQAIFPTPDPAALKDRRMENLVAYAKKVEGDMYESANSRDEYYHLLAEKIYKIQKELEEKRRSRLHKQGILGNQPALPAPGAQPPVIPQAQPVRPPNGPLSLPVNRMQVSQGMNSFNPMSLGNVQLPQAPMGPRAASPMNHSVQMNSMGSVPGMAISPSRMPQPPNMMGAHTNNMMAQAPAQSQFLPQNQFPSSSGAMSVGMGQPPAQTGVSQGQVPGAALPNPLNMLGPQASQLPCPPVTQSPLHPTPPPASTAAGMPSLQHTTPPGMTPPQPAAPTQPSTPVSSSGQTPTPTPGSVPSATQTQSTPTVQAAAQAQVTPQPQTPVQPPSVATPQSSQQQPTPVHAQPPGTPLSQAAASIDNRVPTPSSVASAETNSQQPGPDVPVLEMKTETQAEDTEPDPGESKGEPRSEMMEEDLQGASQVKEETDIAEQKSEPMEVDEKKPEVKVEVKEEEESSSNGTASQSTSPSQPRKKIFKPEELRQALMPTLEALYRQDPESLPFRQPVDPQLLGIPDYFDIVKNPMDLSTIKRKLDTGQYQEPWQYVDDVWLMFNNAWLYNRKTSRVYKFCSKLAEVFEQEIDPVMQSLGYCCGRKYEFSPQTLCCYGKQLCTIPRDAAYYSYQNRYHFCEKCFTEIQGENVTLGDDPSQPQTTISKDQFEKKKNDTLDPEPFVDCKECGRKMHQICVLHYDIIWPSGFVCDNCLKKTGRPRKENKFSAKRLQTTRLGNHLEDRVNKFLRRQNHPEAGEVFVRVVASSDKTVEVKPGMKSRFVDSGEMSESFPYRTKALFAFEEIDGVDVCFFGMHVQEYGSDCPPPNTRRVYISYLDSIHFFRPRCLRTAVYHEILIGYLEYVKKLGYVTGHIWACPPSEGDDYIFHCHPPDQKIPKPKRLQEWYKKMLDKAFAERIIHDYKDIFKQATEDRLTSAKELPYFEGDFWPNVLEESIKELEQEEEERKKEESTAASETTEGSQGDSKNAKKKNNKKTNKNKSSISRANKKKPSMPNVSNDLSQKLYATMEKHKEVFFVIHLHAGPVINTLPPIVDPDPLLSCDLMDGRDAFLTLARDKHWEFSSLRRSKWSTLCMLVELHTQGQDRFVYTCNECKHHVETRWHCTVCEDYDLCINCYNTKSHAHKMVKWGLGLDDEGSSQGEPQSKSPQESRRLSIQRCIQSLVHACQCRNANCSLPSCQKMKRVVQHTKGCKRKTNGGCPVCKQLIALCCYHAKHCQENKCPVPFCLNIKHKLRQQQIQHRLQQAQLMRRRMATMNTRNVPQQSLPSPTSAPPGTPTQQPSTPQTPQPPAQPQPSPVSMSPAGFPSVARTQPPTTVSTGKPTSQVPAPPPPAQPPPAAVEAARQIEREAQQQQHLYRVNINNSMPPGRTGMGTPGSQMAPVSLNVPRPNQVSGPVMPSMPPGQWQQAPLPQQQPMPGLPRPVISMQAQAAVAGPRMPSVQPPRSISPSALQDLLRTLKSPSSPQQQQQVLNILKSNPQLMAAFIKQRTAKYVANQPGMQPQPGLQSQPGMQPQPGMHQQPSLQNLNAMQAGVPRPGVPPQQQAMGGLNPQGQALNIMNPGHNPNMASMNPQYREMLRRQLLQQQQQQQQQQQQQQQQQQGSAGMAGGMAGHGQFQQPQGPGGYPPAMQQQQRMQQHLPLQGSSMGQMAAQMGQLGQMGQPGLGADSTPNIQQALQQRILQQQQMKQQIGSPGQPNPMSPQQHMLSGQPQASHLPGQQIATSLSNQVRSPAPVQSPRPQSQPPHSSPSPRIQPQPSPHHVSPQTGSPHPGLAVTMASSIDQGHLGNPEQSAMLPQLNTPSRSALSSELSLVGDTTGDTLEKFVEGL

[28] = target: Transcription initiation factor TFIID subunit 1 (Homo sapiens) (UniProt P21675); details: Compound concentration 10.0 uM; remark: listed apart in the source
[29] = target: Chromatin remodeling regulator CECR2 (Homo sapiens) (UniProt Q9BXF3); details: Compound concentration 25.0 uM, Protein concentration 19.0 uM
[30] = target: Bromodomain adjacent to zinc finger domain protein 1A (Homo sapiens) (UniProt Q9NRL2); details: Compound concentration 10.0 uM
[31] = target: Histone acetyltransferase p300 (Homo sapiens) (UniProt Q09472); details: Compound concentration 10.0 uM
[32] = target: E3 ubiquitin-protein ligase TRIM33 (Homo sapiens) (UniProt Q9UPN9); details: Compound concentration 25.0 uM
[33] = target: Nucleosome-remodeling factor subunit BPTF (Homo sapiens) (UniProt Q12830); details: Compound concentration 10.0 uM
[34] = target: Nuclear body protein SP140-like protein (Homo sapiens) (UniProt Q9H930); details: Compound concentration 10.0 uM
[35] = target: SWI/SNF-related matrix-associated actin-dependent regulator of chromatin subfamily A member 4 (Homo sapiens) (UniProt P51532); details: Compound concentration 10.0 uM
[36] = target: Nucleosome-remodeling factor subunit BPTF (Homo sapiens) (UniProt Q12830); details: Compound concentration 25.0 uM, Protein concentration 19.0 uM
Description: Alphascreen assay. Domain start/stop: S2791-H2911

[37] = target: Chromatin remodeling regulator CECR2 (Homo sapiens) (UniProt Q9BXF3); details: Compound concentration 10.0 uM; remark: listed apart in the source
[38] = target: Bromodomain-containing protein 1 (Homo sapiens, UniProt O95696)
Peregrin (Homo sapiens) [39] = target: Peregrin (Homo sapiens) (UniProt P55201); details: Compound concentration 10.0 uM; remark: listed apart in the source
[40] = target: Protein polybromo-1 (Homo sapiens) (UniProt Q86U86); details: Compound concentration 10.0 uM; remark: listed apart in the source
[41] = target: Nuclear body protein SP140 (Homo sapiens) (UniProt Q13342); details: Compound concentration 10.0 uM
[42] = target: ATPase family AAA domain-containing protein 2B (Homo sapiens) (UniProt Q9ULI0); details: Compound concentration 10.0 uM
[43] = target: Bromodomain-containing protein 9 (Homo sapiens) (UniProt Q9H8M2); details: Compound concentration 10.0 uM
Chain of Bromodomain-containing protein 9 (Homo sapiens) (Q9H8M2 whole entry): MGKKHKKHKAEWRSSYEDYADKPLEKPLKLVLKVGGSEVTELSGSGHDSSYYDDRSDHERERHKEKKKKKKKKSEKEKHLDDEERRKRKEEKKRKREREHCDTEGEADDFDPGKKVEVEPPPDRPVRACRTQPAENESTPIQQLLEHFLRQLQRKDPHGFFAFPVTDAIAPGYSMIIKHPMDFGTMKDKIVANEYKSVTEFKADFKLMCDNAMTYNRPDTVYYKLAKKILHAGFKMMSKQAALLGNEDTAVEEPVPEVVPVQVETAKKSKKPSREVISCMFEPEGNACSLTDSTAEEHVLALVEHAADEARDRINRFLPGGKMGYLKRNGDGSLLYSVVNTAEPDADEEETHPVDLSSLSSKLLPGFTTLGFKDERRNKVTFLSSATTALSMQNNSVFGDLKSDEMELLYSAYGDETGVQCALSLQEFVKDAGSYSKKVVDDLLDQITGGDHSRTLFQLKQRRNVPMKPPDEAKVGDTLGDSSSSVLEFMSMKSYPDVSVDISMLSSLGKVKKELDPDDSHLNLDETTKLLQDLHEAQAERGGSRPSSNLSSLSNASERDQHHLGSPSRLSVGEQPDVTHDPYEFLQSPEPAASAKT

[44] = target: Bromodomain and WD repeat-containing protein 1 (Homo sapiens) (UniProt Q9NSI6); details: Compound concentration 10.0 uM
[45] = target: Bromodomain adjacent to zinc finger domain protein 2A (Homo sapiens) (UniProt Q9UIF9); details: Compound concentration 10.0 uM
[46] = target: Protein polybromo-1 (Homo sapiens) (UniProt Q86U86); details: Compound concentration 10.0 uM; remark: listed apart in the source
[47] = target: PH-interacting protein (Homo sapiens) (UniProt Q8WWQ0); details: Compound concentration 50.0 uM, Protein concentration 0.025 uM
[48] = target: Bromodomain-containing protein 2 (Homo sapiens) (UniProt P25440); details: Compound concentration 10.0 uM; remark: listed apart in the source
[49] = target: Bromodomain-containing protein 9 (Homo sapiens) (UniProt Q9H8M2); details: Compound concentration 10.0 uM; remark: listed apart in the source
Description: Thermal Shift Assay. Domain start/stop: L14-S134

[50] = target: Bromodomain-containing protein 3 (Homo sapiens) (UniProt Q15059); details: Compound concentration 10.0 uM; remark: listed apart in the source
[51] = target: Histone acetyltransferase KAT2B (Homo sapiens) (UniProt Q92831); details: Compound concentration 10.0 uM
[52] = target: Histone acetyltransferase KAT2A (Homo sapiens) (UniProt Q92830); details: Compound concentration 10.0 uM
[53] = target: Protein polybromo-1 (Homo sapiens) (UniProt Q86U86); details: Compound concentration 10.0 uM; remark: listed apart in the source
[54] = target: Bromodomain-containing protein 1 (Homo sapiens) (UniProt O95696); details: Compound concentration 10.0 uM
[55] = target: Protein polybromo-1 (Homo sapiens) (UniProt Q86U86); details: Compound concentration 10.0 uM; remark: listed apart in the source
[56] = target: Histone-lysine N-methyltransferase 2A (Homo sapiens) (UniProt Q03164); details: Compound concentration 10.0 uM
[57] = target: CREB-binding protein (Homo sapiens) (UniProt Q92793); details: Compound concentration 5.0 uM
Description: Alphascreen assay. Domain start/stop: R1081-G1197

[58] = target: SWI/SNF-related matrix-associated actin-dependent regulator of chromatin subfamily A member 2 (Homo sapiens) (UniProt P51531); details: Compound concentration 10.0 uM

For `COc1cc(C#N)ccc1S(=O)(=O)Nc1ccc2c(c1)cc(C)c(=O)n2C`, which inhibition [1] is on record?
The inhibition was 99.7%.

What about the ΔTm [2] of the same molecule?
Its ΔTm is 0.43 °C.

And the ΔTm [3]?
Its ΔTm is 0.4 °C.

What about the ΔTm [4] of the same molecule?
The ΔTm was 0.58 °C.

What about the ΔTm [5] of the same molecule?
Its ΔTm is 2.11 °C and 2.01 °C.

And the ΔTm [6]?
The ΔTm was 0.93 °C and 1.25 °C.

What about the ΔTm [7] of the same molecule?
The ΔTm was 1.21 °C.

And the ΔTm [8]?
The ΔTm was 0.14 °C.

What about the ΔTm [9] of the same molecule?
The ΔTm was 0.55 °C.

What about the ΔTm [10] of the same molecule?
Its ΔTm is -2.61 °C.

What about the ΔTm [11] of the same molecule?
Its ΔTm is 0.72 °C.

What about the ΔTm [12] of the same molecule?
Its ΔTm is 5.43 °C.

And the ΔTm [13]?
Its ΔTm is 0.79 °C.

And the ΔTm [14]?
The ΔTm was 0.81 °C.

And the ΔTm [15]?
The ΔTm was 0.25 °C.

What about the ΔTm [16] of the same molecule?
Its ΔTm is 0.1 °C.

What about the ΔTm (Peregrin (Homo sapiens) [17]) of the same molecule?
The ΔTm was 1.19 °C.

What about the ΔTm [18] of the same molecule?
Its ΔTm is 0.83 °C.

And the ΔTm [19]?
The ΔTm was 0.15 °C.

What about the IC50 (Peregrin) of the same molecule?
Its IC50 is 0.0472 µM.

What about the ΔTm [20] of the same molecule?
The ΔTm was 0.62 °C.

And the inhibition [21]?
Its inhibition is 4.03%.

What about the ΔTm [22] of the same molecule?
The ΔTm was 0.32 °C.

And the ΔTm [23]?
The ΔTm was -0.43 °C.

And the ΔTm [24]?
Its ΔTm is 6.81 °C.

And the ΔTm [25]?
The ΔTm was 2.08 °C.

And the ΔTm [26]?
The ΔTm was 1.64 °C.

And the ΔTm [27]?
The ΔTm was 0.49 °C and 1.24 °C.

And the ΔTm [28]?
The ΔTm was 0.4 °C.

What about the inhibition [29] of the same molecule?
Its inhibition is 35.4%.

What about the ΔTm [30] of the same molecule?
The ΔTm was 0.38 °C.

And the ΔTm [31]?
Its ΔTm is 1.15 °C.

What about the inhibition [32] of the same molecule?
The inhibition was 9.82%.

What about the ΔTm [33] of the same molecule?
Its ΔTm is 0.31 °C.

And the ΔTm [34]?
The ΔTm was 1.35 °C.

And the ΔTm [35]?
Its ΔTm is 0.38 °C.

What about the inhibition [36] of the same molecule?
The inhibition was 49.2%.

And the ΔTm [37]?
Its ΔTm is 0.42 °C.

What about the IC50 [38] of the same molecule?
Its IC50 is 0.315 µM.

What about the ΔTm (Peregrin (Homo sapiens) [39]) of the same molecule?
Its ΔTm is 12.3 °C and 10.8 °C.

And the ΔTm [40]?
The ΔTm was 0.79 °C.

What about the ΔTm [41] of the same molecule?
The ΔTm was 1.1 °C.

And the ΔTm [42]?
Its ΔTm is -0.01 °C.

And the ΔTm [43]?
The ΔTm was 4.57 °C and 3.61 °C.

And the ΔTm [44]?
The ΔTm was 0.74 °C.

What about the ΔTm [45] of the same molecule?
Its ΔTm is -0.24 °C.

What about the ΔTm [46] of the same molecule?
The ΔTm was 0.3 °C.

And the inhibition [47]?
The inhibition was 6.61% and 8.15%.

And the ΔTm [48]?
The ΔTm was 0.11 °C.

What about the ΔTm [49] of the same molecule?
Its ΔTm is 5.4 °C.

What about the ΔTm [50] of the same molecule?
The ΔTm was 0.17 °C.

And the ΔTm [51]?
Its ΔTm is 0.53 °C.

And the ΔTm [52]?
Its ΔTm is 0.45 °C.

And the ΔTm [53]?
Its ΔTm is 0.5 °C.

What about the ΔTm [54] of the same molecule?
The ΔTm was 5.67 °C.

And the ΔTm [55]?
The ΔTm was 0.3 °C.

And the ΔTm [56]?
Its ΔTm is 0.47 °C.

And the inhibition [57]?
Its inhibition is 4.5%.

And the ΔTm [58]?
Its ΔTm is 0.58 °C.
